This note sets out measurements from patent US20070259439A1, “Determination of antibiotic concentration in bone” (Wyeth, priority 2006, published 2007).

Several values for one entry are separate records, joined by “and”; a condition that tells them apart may be missing. Equal entries are not always repeated. Where two headings read alike, the source gives them in different places. Marks after values point to notes of the source that are not given here.

The data set in a line: Antibiotic bone assay (LC/MS/MS): tigecycline concentration in incurred rat bone. It counts as in vivo. Conditions: for concentration at 4 h: rat, femoral bone (pooled, ground), 3 mg/kg. The procedure: Incurred rat bone was harvested and prepared from rats administered an antibiotic. Two different groups of incurred rat bone were prepared. Group A (n=12) represented bone from rats administered a single dose of tigecycline and Group B (n=19) represented bone from rats administered multiple doses of tigecycline. Group A rats were intravenously administered a single dose of tigecycline at 3 mg/kg. At 4 hours post-dose, the rats were euthanized and the femoral bones were harvested. Group B rats were intravenously administered 3 mg/kg of ^14C-tigecycline, once daily, for 3 days. At 4 hours post-dose, on day 3, the rats were euthanized and the femoral bones were harvested.
Preparation of incurred rat bone sample: To prepare the bone for extraction, two femoral bones from each rat in each group were collected. Femoral bones were cleaned with a saline solution to remove blood and bone marrow. The bones were air-dried and combined to form two pooled samples of incurred rat bone, Group A and Group B. The femoral rat bone pools were ground for approximately 2 minutes in an industrial blender to produce bone particles <1 mm in diameter. The ground, pooled bone sample for each group was stored at −70° C. for later analysis.
Incurred rat bone (IncRB) QC sample: Approximately 0.1 g of IncRB (Group A), which was stored at −70° and thawed, was weighed and dissolved in 1.0 ml of the extraction solvent to create a mixture of bone and solvent. Then, 50 μl of extraction solvent were added to match the volume of working standard solutions added to RBCtrl calibrators or QC samples. For IncHB QC sample, the procedure is similar to rat bone except for using a human incurred bone sample and adding L-ascorbic acid solution prior to adding extraction solvent.
Approximately 100 mg of prepared IncRB and RBCtrl samples (or human control bone or incurred human bone) were accurately weighed and placed into 17×100 mm polypropylene tubes. One hundred twenty μL of stabilizing agent (100 mM ascorbic acid) was added to human bone samples (For the rat bone assay, it was proven that autosampler stability was improved by adding ascorbic acid). One ml of extraction solvent, 50 μl of each tigecycline working standard solution (or 50 μl of methanol for study samples) and 40 μl of working internal standard solution (5000 ng/ml [t-butyl-d9]-tigecycline in methanol) were added to each tube. All sample tubes were vortexed for about 60 seconds. A tissue homogenizing probe was introduced into the mixture (small particles of prepared bone samples in extraction solvent) to further break up the bone particles. The homogenizing probe was operated at a setting of 4 to 5 (˜10,000 rpm) for about 2 minutes until bone particles in the mixture became a cloudy, white homogenous suspension. The probe was removed from the suspension and cleaned between each sample preparation by immersion in 2 ml of water, operating for 30 to 60 seconds, immersion in 2 ml of methanol, operating for 30 to 60 seconds, and wiping dry. Each sample tube containing bone suspension was centrifuged at 3000 rpm, at room temperature, for about 5 minutes. The supernatant (200 μl) was removed and transferred to a 250-μl conical low volume polypropylene autosampler vial and recentrifuged for another 5 minutes before loading into the HPLC autosampler. A 20 μl aliquot of the supernatant was injected onto the LC/MS/MS for tigecycline determination.
Liquid chromatography separation procedures were carried out on a 50×2.0 mm (I.D., 3 μm) HPLC analytical column with a pre-column in-line solvent filer (2.0 μm PEEK filter) and a LC/MS switching valve. PEEK tubing ( 1/16 in.×0.005 in.) connected the separation module, analytical column, LC/MS switching valve, and mass spectrometer. The separation module included a refrigerated autosampler, an in-line degasser, and a quaternary solvent delivery system. The analytical column temperature was approximately 20° C.; autosampler temperature was maintained at 4° C. […]

Turning to `CN(C)c1cc(NC(=O)CNC(C)(C)C)c(O)c2c1C[C@H]1C[C@H]3[C@H](N(C)C)C(O)=C(C(N)=O)C(=O)[C@@]3(O)C(O)=C1C2=O` [tigecycline, Tigecycline], the “Tigecycline concentration in pooled incurred rat bone, Mean ± SD” value by setting is: (Group A, single i.v. dose 3 mg/kg, Day 1, 4 hour, femoral bone pool of 12 rats, 5 replicates) 1048 ± 88^b ng/g; (Group B, multiple dose 3 mg/kg i.v. 14C-tigecycline once daily for 3 days, Day 3, 4 hour, pool of 19 rats, 5 replicates) 3192 ng/g and 3192 ± 93^b ng/g. Besides, the concentration at 4 h is, setting by setting: (intravenous, Group A, single dose 3 mg/kg, Day 1, 4 hour, measured concentration divided by 0.771, read-out: Corrected Mean Conc. in rat bone) 1360 ng/g; (intravenous, Group B, multiple dose 3 mg/kg 14C-tigecycline, Day 3, 4 hour, measured concentration divided by 0.771, read-out: Corrected Mean Conc. in rat bone) 4140 ng/g; (intravenous, IncRB Group B extract used for the bioassay, read-out: Concentration of tigecycline in extracted rat bone sample as determined by LC/MS) 3400 ng/g; (iv, Group A, single i.v. dose 3 mg/kg, Day 1, 4 hour, femoral bone pool of 12 rats, 5 replicates, read-out: Tigecycline concentration in pooled incurred rat bone, Mean ± SD) 1050 ng/g. The “IncRB QC sample concentration (incurred rat bone Group A)” value (single i.v. 3 mg/kg, 4 hours post-dose, nominal value = mean of 3-day global inter-day validation (n = 15)) is 987 ng/g and 987^a ng/g.
